As a reminder, the IC50 is the midpoint of a concentration-inhibition curve. Read a low IC50 as greater potency in that assay. The inhibition is how much of the control response was suppressed.

Experiment [1] deals with canine TRPM8 (Canis lupus familiaris, UniProt Q1A7N1). The experiment is described as follows: TRPM8 Patch Clamp Assays (whole-cell, menthol or cold activation). The experiment is classed as cell-based. On the procedure:
For patch clamp experiments, HEK293 cells are stably transfected with canine TRPM8 and cultured in DMEM supplemented with 10% fetal bovine serum, 100 units/ml penicillin, 100 μg/ml streptomycin and 1 mg/ml G418. Cells are maintained at 37° C. and in 5% CO2.
The extracellular solution contains (in mM): NaCl, 132; EGTA, 1; KCl, 5.4; MgCl2, 0.8; HEPES, 10; glucose, 10; pH=7.4. Recordings are performed using the conventional whole-cell patch clamp technique, 1-2 days after plating cells onto glass coverslips at densities appropriate for single cell recording. Currents are amplified by a patch clamp amplifier and filtered at 2 kHz (Axopatch 200B, Molecular Devices, Union City, Calif.). Menthol (100 μM) is applied to the cell at 0.5 ml/min via a gravity-fed perfusion system. Recordings involving menthol activation are performed at 22° C.
In experiments where temperatures are varied, temperature ramps are generated by cooling the perfusate in an in-line cooler (Model SC-20, Warner Instruments, Hamden, Conn.) controlled by a temperature controller (Model CL-100, Warner Instruments). The temperature in the vicinity of the recorded cell is measured with a custom-made miniature thermo-microprobe connected to a monitoring thermometer (Model TH-8, Physitemp, Clifton, N.J.), and sampled using Digidata 1322A and pClamp 9.0 (Molecular Devices), as are the currents concurrently measured in the whole-cell patch clamp mode. The current is continuously sampled (at 100 Hz) at a holding potential of −60 mV.
Compounds of the formula (I) are diluted from 10 mM DMSO stocks (stored at −20° C.) into an extracellular solution either containing 100 μM menthol or subjected to cooling. Increasing concentrations of a compound are applied to a cell in a cumulative manner and concentration-dependent responses are measured after steady-state activation is achieved by either 100 μM menthol or cooling to 10° C. A saturating concentration of a reference antagonist is applied at the end of an experiment (either in the presence of 100 μM menthol or 10° C. temperature) to establish the baseline from which all the other measurements are subtracted.
Percentage inhibition by a compound is calculated as follows:
100×(1−Icomp/I0); where Icomp and I0 are steady-state current amplitudes in either the presence or absence of a concentration of compounds of the formula (I).
A general note: The patch-clamp technique gives a direct electrical read-out from membranes.

Experiment [2] relates to Male Sprague Dawley rats. The experiment can be described thus: Rightward Shift of Icilin Dose Effect Curve in Rats. The experiment is classed as in vivo. The following applies: Rattus norvegicus; compound 3 mg/kg p.o., 60 pre-icilin; icilin i.p.; read-out: Icilin ED50, mg/kg, i.p., compound pretreatment. On the procedure: Male Sprague Dawley rats (200-400 g, Charles River Labs, n=6-9/treatment) were administered icilin in a suitable vehicle (e.g. PEG-400, 10% Solutol) at 0.1-30 mg/kg, i.p. Spontaneous “wet-dog” shakes were counted 10-20 minutes post-icilin in order to generate a icilin dose-effect curve. A compound of the present invention was administered orally in hydroxypropyl-β-cyclodextrin 60 minutes before icilin challenge to assess the compound's ability to inhibit spontaneous “wet-dog” shakes (WDS) produced by a range of icilin doses. The ED50 of the icilin dose-effect curve generated in the presence of TRPM8 antagonist may be compared to that generated in the presence of vehicle to determine the magnitude of rightward shift as shown below in Table 7.

Experiment [3] has as its system male Sprague-Dawley rats. The experiment is described as follows: Cold-Evoked Cardiovascular Pressor Responses (anesthetized rat cold pressor paradigm). In kind it is in vivo. The following applies: HPbCD, 1.5 hours relative to Cold Challenge, Na salt form. The source says: Compounds of the formula (I) can be tested in animals and humans for their ability to mitigate cardiovascular pressor responses evoked by cold exposure. Seasonal environmental cooling is directly associated with elevated blood pressure and an increased incidence of coronary events in human populations worldwide (Barnett, A G et al. J Epidemiol Community Heath 2005, 59 551-557). Cold-evoked pulmonary hypertention and cold aggravation of chronic obstructive pulmonary disease are clinical indications susceptible to heightened cardiopulmonary sensitivity to cold (Marno P et al. Eur Respiratory Review 2006, 15 (101): 185.; Acikel M et al Int J of Cardiol (2004) 97: 187-192). The clinical cold pressor test assesses changes in blood pressure (BP) and cold pain perception during a 2-3 minute immersion of one hand into ice water. […] Compounds of the formula (I) can be studied in an anesthetized rat cold pressor paradigm to determine whether TRPM8 antagonism would interfere with the blood pressure pressor response to cold stimulation of the forepaws. Male Sprague-Dawley rats (300-450 g) anesthetized with sodium pentobarbital are instrumented with a jugular catheter and an indwelling carotid artery cannula connected to a pressure transducer. Vehicle (e.g. 20% HPbCD in sterile water) or test compound is infused (1 mL/kg) over one minute through the intravenous catheter. Ten minutes later both forelimbs are packed in crushed ice for 5 minutes. Alternatively, the test compound and vehicle treatments may be administered orally at an appropriated time prior to the surgical cannulations and cold challenge. Percent changes in mean arterial pressure in response to this cold stimulus are calculated for vehicle and test compound pretreatments. Percent inhibition attributed to treatment with test compound is then determined using the following formula: % Inhibition=[1−(cold evoked % change in BP post-test compound/cold evoked % change in BP post-vehicle)]×100.

Chain of canine TRPM8 (Q1A7N1 1-1104): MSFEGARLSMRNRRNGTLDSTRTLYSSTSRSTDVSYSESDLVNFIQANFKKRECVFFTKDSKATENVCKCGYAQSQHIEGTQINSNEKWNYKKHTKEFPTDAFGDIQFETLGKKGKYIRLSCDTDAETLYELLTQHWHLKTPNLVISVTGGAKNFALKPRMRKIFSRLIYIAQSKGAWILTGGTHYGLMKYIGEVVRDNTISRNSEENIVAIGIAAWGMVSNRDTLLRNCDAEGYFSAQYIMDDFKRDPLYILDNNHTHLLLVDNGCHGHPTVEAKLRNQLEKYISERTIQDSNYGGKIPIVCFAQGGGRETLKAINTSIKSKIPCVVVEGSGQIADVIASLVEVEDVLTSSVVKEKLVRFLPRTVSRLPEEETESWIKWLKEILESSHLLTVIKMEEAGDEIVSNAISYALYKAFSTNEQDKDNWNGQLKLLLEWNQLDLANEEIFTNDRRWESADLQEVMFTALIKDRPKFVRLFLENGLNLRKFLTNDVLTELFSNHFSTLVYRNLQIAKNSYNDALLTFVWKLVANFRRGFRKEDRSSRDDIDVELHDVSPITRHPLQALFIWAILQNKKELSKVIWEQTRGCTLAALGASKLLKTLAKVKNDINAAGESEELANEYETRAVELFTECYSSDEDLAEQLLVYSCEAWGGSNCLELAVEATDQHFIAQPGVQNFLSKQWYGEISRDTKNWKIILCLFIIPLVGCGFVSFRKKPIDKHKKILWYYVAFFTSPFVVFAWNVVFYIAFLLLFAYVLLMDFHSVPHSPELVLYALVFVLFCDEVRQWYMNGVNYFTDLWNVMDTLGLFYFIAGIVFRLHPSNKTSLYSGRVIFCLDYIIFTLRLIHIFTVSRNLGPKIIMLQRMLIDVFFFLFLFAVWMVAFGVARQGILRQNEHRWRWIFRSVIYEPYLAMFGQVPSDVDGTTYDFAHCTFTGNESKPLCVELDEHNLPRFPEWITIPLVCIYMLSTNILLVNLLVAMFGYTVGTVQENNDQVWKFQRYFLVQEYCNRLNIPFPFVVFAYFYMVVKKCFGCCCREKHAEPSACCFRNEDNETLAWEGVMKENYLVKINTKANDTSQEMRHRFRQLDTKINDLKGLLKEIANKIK

`Cc1c(N(Cc2ccc(F)c(C(F)(F)F)c2)S(=O)(=O)c2ccc(C(=O)O)cc2)sc2ccccc12` [Compound 306, N-(3-Methyl-benzo[b]thiophen-2-yl)-N-(4-fluoro-3-trifluoromethyl-benzyl)-4-carboxy-benzenesulfonamide]: in experiment [1] (cold stimulation), the IC50 came out at 2.3 nM, the inhibition at 0.001 µM came out at 22.4%, at 0.003 µM the inhibition was 60.1% and testing at 0.01 µM gave an inhibition of 86.2%. Further, at 0.03 µM the inhibition in experiment [1] (cold stimulation, 0.03 μM) was 97.3%. In experiment [1] (menthol stimulation), the IC50 came to 1.1 nM, 0.0003 µM produced 11.6% inhibition, 0.001 µM produced 47.3% inhibition and the inhibition at 0.003 µM is 78%. For the same compound, the inhibition at 0.01 µM in experiment [1] (menthol stimulation) is 94.9%. In addition, the ED50 in experiment [2] is 2.96 mg/kg. For the same compound, in experiment [3] (dose 1 p.o.), the “Percent Inhibition, relative to vehicle” value is given as 16%. Also, the “Percent Inhibition, relative to vehicle” value in experiment [3] (dose 3 p.o.) is 41%. The “Percent Inhibition, relative to vehicle” value in experiment [3] (dose 10 p.o.) came out at 62%. In addition, the “Percent Inhibition, relative to vehicle” value in experiment [3] (dose 30 p.o.) is given as 75%.

Take `Cc1c(N(Cc2ccc(OC(F)(F)F)cc2)S(=O)(=O)c2ccc(C(=O)O)cc2)sc2ccccc12` [Compound 496, N-(3-Methyl-benzo[b]thiophen-2-yl)-N-(4-trifluoromethoxy-benzyl)-4-carboxy-benzenesulfonamide]: in experiment [1] (cold stimulation), the IC50 turned out to be 0.554 nM, the inhibition at 0.0003 µM stood at 21.6%, the inhibition at 0.001 µM is 77.7% and the inhibition at 0.003 µM is 96.4%. In experiment [1] (menthol stimulation), this compound yielded an IC50 of 0.183 nM, an inhibition at 0.0003 µM of 68.6%, an inhibition at 0.001 µM of 95.8% and an inhibition at 0.003 µM of 99.6%. The same compound came in with an inhibition at 0.0001 µM in experiment [1] (menthol stimulation, 0.0001 μM) of 27.5%.

The record behind these values is patent US9434711B2 (Janssen Pharmaceutica, NV, priority 2007, dated 2016).
